Data taken from patent US8697725B2, “Tetrahydroquinoline derivatives and their pharmaceutical use” (GlaxoSmithKline LLC, priority 2009, dated 2014).
Counter-ions that a name gives are not always drawn.

System: TNFα
Experiment: LPS Stimulated Whole Blood Measuring TNFα Levels Assay
Format: cell-based
Settings: 24 h, LPS 200 ng/ml, immunoassay, read-out: pIC50, TNFα levels in LPS stimulated whole blood (converted)
Description: LPS Stimulated Whole Blood Measuring TNFα Levels Assay
Activation of monocytic cells by agonists of toll-like receptors such as bacterial lipopolysaccharide (LPS) results in production of key inflammatory mediators including TNFα. Such pathways are widely considered to be central to the pathophysiology of a range of auto-immune and inflammatory disorders.
Compounds to be tested are diluted to give a range of appropriate concentrations and 1 ul of the dilution stocks is added to wells of a 96 plate. Following addition of whole blood (130 ul) the plates are incubated at 37 degrees (5% CO2) for 30 min before the addition of 10 ul of 2.8 ug/ml lipopolysaccharides (LPS), diluted in complete RPMI 1640 (final concentration=200 ng/ml), to give a total volume of 140 ul per well. After further incubation for 24 hours at 37 degrees, 140 ul of PBS are added to each well. The plates are sealed, shaken for 10 minutes and then centrifuged (2500 rpm×10 min). 100 ul of the supernatant are removed and TNFα levels assayed by immunoassay (typically by MesoScale Discovery technology) either immediately or following storage at −20 degrees. Dose response curves for each compound was generated from the data and an IC50 value was calculated.

IC50, ≤ 6.31 µM:
CC(=O)N1c2ccc(-c3ccc(CN4CCCCC4)cc3)cc2[C@@H](NC(=O)OC2CCCC2)C[C@H]1C (racemic) [Example 36, cyclopentyl {(cis)-1-acetyl-2-methyl-6-[4-(1-piperidinylmethyl)phenyl]-1,2,3,4-tetrahydro-4-quinolinyl}carbamate]
CC(=O)N1c2ccc(-c3cnc(N4CCCCC4)nc3)cc2[C@@H](NC(=O)OC(C)C)C[C@H]1C (racemic) [Example 49, 1-methylethyl {(cis)-1-acetyl-2-methyl-6-[2-(1-piperidinyl)-5-pyrimidinyl]-1,2,3,4-tetrahydro-4-quinolinyl}carbamate hydrochloride]
CC(=O)N1c2ccc(-c3ccc(N4CCNCC4)nn3)cc2[C@@H](NC(=O)OC(C)C)C[C@H]1C (racemic) [Example 45, 1-methylethyl {(cis)-1-acetyl-2-methyl-6-[6-(1-piperazinyl)-3-pyridazinyl]-1,2,3,4-tetrahydro-4-quinolinyl}carbamate hydrochloride]
CC(=O)N1c2ccc(-c3ccc(C#N)cc3)cc2[C@H](NC(=O)OC(C)C)C[C@@H]1C [Example 120, 1-Methylethyl[(2S,4R)-1-acetyl-6-(4-cyanophenyl)-2-methyl-1,2,3,4-tetrahydro-4-quinolinyl]carbamate]
CC(=O)N1c2ccc(-c3cnc(N4CCNCC4)nc3)cc2[C@@H](NC(=O)OC(C)C)C[C@H]1C (racemic) [Example 44, 1-methylethyl {(cis)-1-acetyl-2-methyl-6-[2-(1-piperazinyl)-5-pyrimidinyl]-1,2,3,4-tetrahydro-4-quinolinyl}carbamate hydrochloride]
CC(=O)N1c2ccc(-c3sc(C)nc3C)cc2[C@@H](NC(=O)OC(C)C)C[C@H]1C (racemic) [Example 32, 1-methylethyl[(cis)-1-acetyl-6-(2,4-dimethyl-1,3-thiazol-5-yl)-2-methyl-1,2,3,4-tetrahydro-4-quinolinyl]carbamate]
CC(=O)N1c2ccc(-c3ccc(N4CCN(C(=O)OC(C)(C)C)CC4)nc3)cc2[C@@H](NC(=O)OC(C)C)C[C@H]1C (racemic) [Example 8, 1,1-dimethylethyl 4-{5-[(cis)-1-acetyl-2-methyl-4-({[(1-methylethyl)oxy]carbonyl}amino)-1,2,3,4-tetrahydro-6-quinolinyl]-2-pyridinyl}-1-piperazinecarboxylate]
CC(=O)N1c2ccc(-c3ccc(N4CCOCC4)nc3)cc2[C@@H](NC(=O)OC(C)C)C[C@H]1C (racemic) [Example 10, 1-methylethyl {(cis)-1-acetyl-2-methyl-6-[6-(4-morpholinyl)-3-pyridinyl]-1,2,3,4-tetrahydro-4-quinolinyl}carbamate hydrochloride]
CC(=O)N1c2ccc(-c3cc(CN4CCCCC4)co3)cc2[C@@H](NC(=O)OC(C)C)C[C@H]1C (racemic) [Example 18, 1-methylethyl {(cis)-1-acetyl-2-methyl-6-[4-(1-piperidinylmethyl)-2-furanyl]-1,2,3,4-tetrahydro-4-quinolinyl}carbamate]
CNc1ccc(-c2ccc3c(c2)[C@@H](NC(=O)OC(C)C)C[C@@H](C)N3C(C)=O)cn1 (racemic) [Example 53, 1-methylethyl {(cis)-1-acetyl-2-methyl-6-[6-(methylamino)-3-pyridinyl]-1,2,3,4-tetrahydro-4-quinolinyl}carbamate hydrochloride]
CC(=O)N1c2ccc(Br)cc2[C@H](NC(=O)OC(C)C)C[C@@H]1C [Example 4, 1-methylethyl[(2S,4R)-1-acetyl-6-bromo-2-methyl-1,2,3,4-tetrahydro-4-quinolinyl]carbamate]
CC(=O)N1c2ccc(-c3cnn(CCN4CCCCC4)c3)cc2[C@@H](NC(=O)OC(C)C)C[C@H]1C (racemic) [Example 46, 1-methylethyl((cis)-1-acetyl-2-methyl-6-{1-[2-(1-piperidinyl)ethyl]-1H-pyrazol-4-yl}-1,2,3,4-tetrahydro-4-quinolinyl)carbamate hydrochloride]
CC(=O)N1c2ccc(-c3cnc(N4CCNCC4)cn3)cc2[C@@H](NC(=O)OC(C)C)C[C@H]1C (racemic) [Example 43, 1-methylethyl {(cis)-1-acetyl-2-methyl-6-[5-(1-piperazinyl)-2-pyrazinyl]-1,2,3,4-tetrahydro-4-quinolinyl}carbamate hydrochloride]
